In patent US20260337193A1, “SMALL MOLECULE INHIBITORS OF UBIQUITIN SPECIFIC PROTEASE 1 (USP1) AND USES THEREOF” (Insilico Medicine IP Limited, priority 2023, published 2026) one finds IC50 data, which are given here for 21 compounds.

Assay [1] addresses T1, Human recombinant USP1/UAF1 (Homo sapiens, UniProt O94782).
T1 construct: purchased R & D E-568-050; host or cells: baculovirus infected Sf21 cells
In words: Enzymatic assay: USP1/UAF1 deubiquitination of Ubiquitin Rhodamine 110 (kinetic fluorescence). Type of assay: biochemical. The settings on record: 2 nM USP1/UAF1, 15 min preincubation at RT, HEPES pH 8.0, 500 nM Ubiquitin Rhodamine 110. Here is the method:
Example A1: Enzymatic Assay
Human recombinant USP1/UAF1 expressed in baculovirus infected Sf21 cells were used (R & D, E-568-050). Test compound and/or vehicle was incubated with 2 nM of USP1/UAF1 in modified HEPES buffer pH 8.0 for 15 minutes at RT. The reaction was initiated by addition of 500 nM of Ubiquitin Rhodamine 110 (R & D, U-555-050) for kinetic reading. Slope change of fluorescence intensity was read spectrofluorimetrically at 485 nm/535 nm. Dose response of test compounds or reference compound ML-323 was analyzed by nonlinear regression of GraphPad prism software.

For the next assay, the system named is MDA-MB-436 cells. In words: MDA-MB-436 breast cancer cell proliferation assay (CellTiter-Glo). Type of assay: cell-based. The settings on record: Homo sapiens, 168 h, 7 days, 37° C. Here is the method: Example A2: MDA-MB-436 Breast Cancer Cell Culture
MDA-MB-436 cells were grown in Leibovitz's L-15 medium with 10 μg/ml insulin, 16 μg/ml glutathione, 10% FBS. Cells were passaged at subconfluence after trypsinization and maintained in incubators at 37° C. in a humidified atmosphere with 5% CO2.
Example A3: MDA-MB-436 Breast Cancer Cell Proliferation Assay
Cell proliferation was determined using CellTiter-Glo® Luminescent Cell Viability Assay (Promega, #G7573). MDA-MB-436 cells were seeded in 384-well plates and allowed to attach for 24 h. Compounds were added into 384-well plate by ECHO, and incubated at 37° C. in a humidified atmosphere with 5% CO2. After 7 days, CellTiter-Glo® was added into 384 well plates, contents were mixed on an orbital shaker at 400 g for 2 min before centrifuging the plate for 2 min at 1000 rpm. After incubation at RT for 30 min, luminescence was read on envision.

T1 sequence (O94782 whole entry): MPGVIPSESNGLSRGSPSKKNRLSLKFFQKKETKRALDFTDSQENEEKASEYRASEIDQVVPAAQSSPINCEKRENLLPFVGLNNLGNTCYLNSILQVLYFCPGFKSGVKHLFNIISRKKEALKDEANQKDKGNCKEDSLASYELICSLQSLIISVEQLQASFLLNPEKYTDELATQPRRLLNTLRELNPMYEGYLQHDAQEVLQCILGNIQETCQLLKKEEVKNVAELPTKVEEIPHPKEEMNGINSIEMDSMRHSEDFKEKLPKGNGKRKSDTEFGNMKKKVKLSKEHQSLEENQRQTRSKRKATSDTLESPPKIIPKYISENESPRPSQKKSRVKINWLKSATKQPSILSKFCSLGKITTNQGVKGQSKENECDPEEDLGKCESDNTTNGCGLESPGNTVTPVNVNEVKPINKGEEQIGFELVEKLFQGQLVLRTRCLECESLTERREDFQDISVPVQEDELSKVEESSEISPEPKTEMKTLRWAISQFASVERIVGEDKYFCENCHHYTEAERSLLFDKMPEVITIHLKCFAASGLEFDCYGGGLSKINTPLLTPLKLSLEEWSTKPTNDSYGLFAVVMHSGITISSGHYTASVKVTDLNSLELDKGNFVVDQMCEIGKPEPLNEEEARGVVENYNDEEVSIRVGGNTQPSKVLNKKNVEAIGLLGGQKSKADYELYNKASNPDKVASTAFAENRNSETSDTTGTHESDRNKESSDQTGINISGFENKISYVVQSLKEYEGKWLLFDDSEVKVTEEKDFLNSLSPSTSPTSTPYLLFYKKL
T1 sequence (Q8TAF3 whole entry partner): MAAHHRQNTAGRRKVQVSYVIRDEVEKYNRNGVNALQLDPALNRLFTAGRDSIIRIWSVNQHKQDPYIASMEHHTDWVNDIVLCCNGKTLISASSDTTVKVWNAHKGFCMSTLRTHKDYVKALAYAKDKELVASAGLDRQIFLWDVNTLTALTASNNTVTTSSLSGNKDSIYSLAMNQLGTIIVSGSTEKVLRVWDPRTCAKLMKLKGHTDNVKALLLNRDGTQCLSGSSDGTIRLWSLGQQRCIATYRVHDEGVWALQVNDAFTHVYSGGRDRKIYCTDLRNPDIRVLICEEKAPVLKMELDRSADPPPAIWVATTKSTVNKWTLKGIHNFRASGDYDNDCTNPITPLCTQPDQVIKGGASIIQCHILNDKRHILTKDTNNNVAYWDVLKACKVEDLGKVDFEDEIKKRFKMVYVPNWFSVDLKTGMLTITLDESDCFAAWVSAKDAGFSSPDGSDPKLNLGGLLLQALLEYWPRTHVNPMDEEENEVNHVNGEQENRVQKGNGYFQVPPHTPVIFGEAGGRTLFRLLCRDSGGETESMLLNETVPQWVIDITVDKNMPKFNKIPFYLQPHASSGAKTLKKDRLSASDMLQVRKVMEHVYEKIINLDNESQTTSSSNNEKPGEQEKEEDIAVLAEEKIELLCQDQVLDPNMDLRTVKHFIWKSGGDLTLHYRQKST

For the compound `CC(C)c1ncccc1-c1ncnc2c1CN(c1ccc(-c3nc(C(F)(F)F)cn3C)cc1)CC2` [Compound 1, 4-(2-isopropylpyridin-3-yl)-6-(4-(1-methyl-4-(trifluoromethyl)-1H-imidazol-2-yl)phenyl)-5,6,7,8-tetrahydropyrido[4,3-d]pyrimidine], the IC50 (in assay [1]; in the assay with MDA-MB-436 cells) was 1 to 10 µM in each case.
As for `COc1ncnc(C2CC2)c1-c1nccc2c1CN(c1ccc(-c3nc(C(F)(F)F)cn3C)cn1)CC2` [Compound 2, 8-(4-cyclopropyl-6-methoxypyrimidin-5-yl)-2-(5-(1-methyl-4-(trifluoromethyl)-1H-imidazol-2-yl)pyridin-2-yl)-1,2,3,4-tetrahydro-2,7-naphthyridine], the IC50 (in assay [1]; in the assay with MDA-MB-436 cells) was 0.05 to 1 µM each time.
Take `COc1ncnc(C2CC2)c1-c1nnn2c1CN(c1ccc(-c3nc(C(F)(F)F)cn3C)cc1)CC2` [Compound 3, 3-(4-cyclopropyl-6-methoxypyrimidin-5-yl)-5-(4-(1-methyl-4-(trifluoromethyl)-1H-imidazol-2-yl)phenyl)-4,5,6,7-tetrahydro-[1,2,3]triazolo[1,5-a]pyrazine]: the IC50 (in assay [1]; with MDA-MB-436 cells) was 0.05 to 1 µM throughout.
Turning to `COc1ncnc(C2CC2)c1-c1nn(C)c2c1CN(c1ncc(-c3nc(C(F)(F)F)cn3C)s1)C2` [Compound 4, 2-(3-(4-cyclopropyl-6-methoxypyrimidin-5-yl)-1-methyl-4,6-dihydropyrrolo[3,4-c]pyrazol-5(1H)-yl)-5-(1-methyl-4-(trifluoromethyl)-1H-imidazol-2-yl)thiazole], the IC50 (in assay [1]; with MDA-MB-436 cells) was 0.05 to 1 µM each time.
Take `COc1ncnc(C2CC2)c1-c1nn(C)c2c1CN(c1ccc(-c3nc(C(F)(F)F)cn3C)cn1)C2` [Compound 5, 3-(4-cyclopropyl-6-methoxypyrimidin-5-yl)-1-methyl-5-(5-(1-methyl-4-(trifluoromethyl)-1H-imidazol-2-yl)pyridin-2-yl)-1,4,5,6-tetrahydropyrrolo[3,4-c]pyrazole]: the half-maximal inhibitory concentration (IC50) (commonly the concentration that inhibits the measured activity by half) in assay [1] lay in the range of 1 to 10 µM.
As to `COc1ncnc(C2CC2)c1-c1nn(C)c2c1CN(c1ccc(-c3nc(C(F)(F)F)cn3C)nc1)C2` [Compound 6, 3-(4-cyclopropyl-6-methoxypyrimidin-5-yl)-1-methyl-5-(6-(1-methyl-4-(trifluoromethyl)-1H-imidazol-2-yl)pyridin-3-yl)-1,4,5,6-tetrahydropyrrolo[3,4-c]pyrazole], the IC50 in assay [1] was in the range of 1 to 10 µM.
On to `COc1ncnc(C2CC2)c1-c1nn(C)c2c1CN(c1ccc(-c3nc(C(F)(F)F)cn3C)cc1)C2` [Compound 7, 3-(4-cyclopropyl-6-methoxypyrimidin-5-yl)-1-methyl-5-(4-(1-methyl-4-(trifluoromethyl)-1H-imidazol-2-yl)phenyl)-1,4,5,6-tetrahydropyrrolo[3,4-c]pyrazole], for which the IC50 in assay [1] fell in the range of 0.05 to 1 µM.
In the case of `COc1ncnc(C2CC2)c1-c1nn(C)c2c1CN(c1ncc(-c3nc(C(F)(F)F)cn3C(C)C)s1)C2` [Compound 8, 2-(3-(4-cyclopropyl-6-methoxypyrimidin-5-yl)-1-methyl-4,6-dihydropyrrolo[3,4-c]pyrazol-5(1H)-yl)-5-(1-isopropyl-4-(trifluoromethyl)-1H-imidazol-2-yl)thiazole], the IC50 (in assay [1]; in the assay with MDA-MB-436 cells) was 0.05 to 1 µM each time.
Consider `CC(C)c1ncccc1-c1nn(C)c2c1CN(c1ncc(-c3nc(C(F)(F)F)cn3C)s1)C2` [Compound 9, 2-(3-(2-isopropylpyridin-3-yl)-1-methyl-4,6-dihydropyrrolo[3,4-c]pyrazol-5(1H)-yl)-5-(1-methyl-4-(trifluoromethyl)-1H-imidazol-2-yl)thiazole], for which the IC50 in assay [1] lay in the range of 0.05 to 1 µM.
`COc1ncnc(C2CC2)c1-c1nn(C)c2c1CN(c1cnc(-c3nc(C(F)(F)F)cn3C)s1)C2` [Compound 10, 5-(3-(4-cyclopropyl-6-methoxypyrimidin-5-yl)-1-methyl-4,6-dihydropyrrolo[3,4-c]pyrazol-5(1H)-yl)-2-(1-methyl-4-(trifluoromethyl)-1H-imidazol-2-yl)thiazole]: the half-inhibitory concentration (IC50) (in assay [1]; in the assay on MDA-MB-436 cells) was 0.05 to 1 µM throughout.
For the compound `COc1ncnc(C2CC2)c1-n1nc(C)c2c1CN(c1ccc(-c3nc(C(F)(F)F)cn3C)cn1)CC2` [Compound 11, 1-(4-cyclopropyl-6-methoxypyrimidin-5-yl)-3-methyl-6-(5-(1-methyl-4-(trifluoromethyl)-1H-imidazol-2-yl)pyridin-2-yl)-4,5,6,7-tetrahydro-1H-pyrazolo[3,4-c]pyridine], the IC50 in assay [1] was 0.05 to 1 µM; in the assay on MDA-MB-436 cells, less than 0.05 µM.
In the case of `CCn1cc(C(F)(F)F)nc1-c1ccc(N2CCc3c(C)nn(-c4c(OC)ncnc4C4CC4)c3C2)nc1` [Compound 12, 1-(4-cyclopropyl-6-methoxypyrimidin-5-yl)-6-(5-(1-ethyl-4-(trifluoromethyl)-1H-imidazol-2-yl)pyridin-2-yl)-3-methyl-4,5,6,7-tetrahydro-1H-pyrazolo[3,4-c]pyridine], the IC50 in assay [1] is 0.05 to 1 µM; in the assay on MDA-MB-436 cells, less than 0.05 µM.
On the same counts, the results for `COc1ncnc(C2CC2)c1-n1nc(C)c2c1CN(c1ccc(-c3nc(C(F)(F)F)cn3C(C)C)cn1)CC2` [Compound 13, 1-(4-cyclopropyl-6-methoxypyrimidin-5-yl)-6-(5-(1-isopropyl-4-(trifluoromethyl)-1H-imidazol-2-yl)pyridin-2-yl)-3-methyl-4,5,6,7-tetrahydro-1H-pyrazolo[3,4-c]pyridine] are 0.05 to 1 µM and 0.05 to 1 µM.
With `COc1ncnc(C2CC2)c1-n1nc(C)c2c1CN(c1ccc(-c3nc(C(F)(F)F)cn3C)nc1)CC2` [Compound 14, 1-(4-cyclopropyl-6-methoxypyrimidin-5-yl)-3-methyl-6-(6-(1-methyl-4-(trifluoromethyl)-1H-imidazol-2-yl)pyridin-3-yl)-4,5,6,7-tetrahydro-1H-pyrazolo[3,4-c]pyridine], the half-maximal inhibitory concentration (IC50) (in assay [1]; in the assay with MDA-MB-436 cells) was 0.05 to 1 µM in each case.
Regarding `COc1ncnc(C2CC2)c1-n1nc(C)c2c1CN(c1cnc(-c3nc(C(F)(F)F)cn3C)cn1)CC2` [Compound 15, 1-(4-cyclopropyl-6-methoxypyrimidin-5-yl)-3-methyl-6-(5-(1-methyl-4-(trifluoromethyl)-1H-imidazol-2-yl)pyrazin-2-yl)-4,5,6,7-tetrahydro-1H-pyrazolo[3,4-c]pyridine], the IC50 (in assay [1]; with MDA-MB-436 cells) was less than 0.05 µM each time.
As for `COc1ncnc(C2CC2)c1-n1nc(C)c2c1CN(c1ncc(-c3nc(C(F)(F)F)cn3C)cn1)CC2` [Compound 16, 1-(4-cyclopropyl-6-methoxypyrimidin-5-yl)-3-methyl-6-(5-(1-methyl-4-(trifluoromethyl)-1H-imidazol-2-yl)pyrimidin-2-yl)-4,5,6,7-tetrahydro-1H-pyrazolo[3,4-c]pyridine], the IC50 (in assay [1]; in the assay on MDA-MB-436 cells) was 0.05 to 1 µM in each case.
As for `COc1ncnc(C2CC2)c1-n1nc(C)c2c1CN(c1ccc(-c3nc(C(F)(F)F)cn3C)c(F)c1)CC2` [Compound 17, 1-(4-cyclopropyl-6-methoxypyrimidin-5-yl)-6-(3-fluoro-4-(1-methyl-4-(trifluoromethyl)-1H-imidazol-2-yl)phenyl)-3-methyl-4,5,6,7-tetrahydro-1H-pyrazolo[3,4-c]pyridine], the IC50 (in assay [1]; in the assay on MDA-MB-436 cells) was less than 0.05 µM throughout.
Consider `COc1ncnc(C2CC2)c1-n1nc(C)c2c1CN(c1ccc(-c3nc(C(F)(F)F)cn3C)cc1F)CC2` [Compound 18, 1-(4-cyclopropyl-6-methoxypyrimidin-5-yl)-6-(2-fluoro-4-(1-methyl-4-(trifluoromethyl)-1H-imidazol-2-yl)phenyl)-3-methyl-4,5,6,7-tetrahydro-1H-pyrazolo[3,4-c]pyridine], for which the results for the IC50 (in assay [1]; in the assay on MDA-MB-436 cells) were 0.05 to 1 µM and less than 0.05 µM, respectively.
On the same counts, the results for `Cc1nn(-c2ccccc2C(C)C)c2c1CCN(c1ccc(-c3nc(C(F)(F)F)cn3C)cn1)C2` [Compound 19, 1-(2-isopropylphenyl)-3-methyl-6-(5-(1-methyl-4-(trifluoromethyl)-1H-imidazol-2-yl)pyridin-2-yl)-4,5,6,7-tetrahydro-1H-pyrazolo[3,4-c]pyridine] are less than 0.05 µM and less than 0.05 µM.
On the same counts, the results for `COc1ncnc(C2CC2)c1-n1nc(C)c2c1CN(c1ccc(-n3nc(C(F)(F)F)cc3C)cn1)CC2` [Compound 20, 1-(4-cyclopropyl-6-methoxypyrimidin-5-yl)-3-methyl-6-(5-(5-methyl-3-(trifluoromethyl)-1H-pyrazol-1-yl)pyridin-2-yl)-4,5,6,7-tetrahydro-1H-pyrazolo[3,4-c]pyridine] are 0.05 to 1 µM and 0.05 to 1 µM.
In the same order, the values of `COc1ncnc(C2CC2)c1-n1nc(C)c2c1CN(c1ncc(-c3nc(C(F)(F)F)cn3C)s1)CC2` [Compound 21, 2-(1-(4-cyclopropyl-6-methoxypyrimidin-5-yl)-3-methyl-1,4,5,7-tetrahydro-6H-pyrazolo[3,4-c]pyridin-6-yl)-5-(1-methyl-4-(trifluoromethyl)-1H-imidazol-2-yl)thiazole] are 0.05 to 1 µM and 0.05 to 1 µM.
